Details: Liquid; for mass density: 298.15 K, 101.33 kPa

COC(=O)OC [dimethyl carbonate]
Details | mass density [kg/m3] | vapor or sublimation pressure [kPa]
– | 1063.38 | –
336.68 K | – | 40
344.38 K | – | 53.33
350.66 K | – | 66.66
356.01 K | – | 79.99
360.68 K | – | 93.32

CCO [ethanol]
Details | mass density [kg/m3]
– | 785.23

Ebulliometric method (Recirculating still)
Details | vapor or sublimation pressure [kPa]
329.7 K | 40
336.11 K | 53.33
341.28 K | 66.66
345.65 K | 79.99
349.45 K | 93.32

CO [methanol]
Details | mass density [kg/m3]
– | 786.67

Ebulliometric method (Recirculating still)
Details | vapor or sublimation pressure [kPa]
315.74 K | 40
315.87 K | 40
322.17 K | 53.33
322.25 K | 53.33
327.37 K | 66.66
327.45 K | 66.66
331.75 K | 79.99
331.84 K | 79.99
335.56 K | 93.32
335.66 K | 93.32

— the NIST ThermoML archive (doi:10.1021/je0601309)
